Laboratory results published in patent publication US20230190705A1, “DRUG COMBINATION FOR TREATING DIABETES MELLITUS AND COMPLICATIONS THEREOF AND PHARMACEUTICAL COMPOSITION OF DRUG COMBINATION” (Chengdu Chipscreen Pharmaceutical Ltd., priority 2020, published 2023).

Legend:
db/db male mice [1] = test: Body weight and fasting blood glucose, chiglitazar sodium with dapagliflozin (Example 2); format: in vivo; conditions: oral once a day for 14 days, 10 mg/kg chiglitazar sodium, 1.5 mg/kg dapagliflozin or both, FIG. 2
Method: Experimental design: the effects on body weight and blood glucose of single and combined medication were investigated, by oral administration of chiglitazar sodium, dapagliflozin, or a combination thereof to mice.
Wild-type C57BLKS/Jnju mice were used as normal control (administered with vehicle). The period of administration was 14 days, and the animals were treated and dissected on Day 15. Starting from the administration, the mice were subjected to weighing and measurement of fasting blood glucose (4-6 hours of fasting) every 3 days.

diabetic patients = conditions: clinical studies; cited from earlier work
db/db male mice [2] = test: Blood lipids (serum TC and TG), chiglitazar sodium with dapagliflozin (Example 4); format: in vivo; conditions: oral once a day for 14 days, serum on Day 15, 10 mg/kg chiglitazar sodium, 1.5 mg/kg dapagliflozin or both, FIG. 4
Method: Experimental design: the effects on total cholesterol (TC) and triglyceride (TG) in mouse serum of single and combined medication were investigated, by oral administration of chiglitazar sodium, dapagliflozin, or a combination thereof to diabetic mice.
Wild-type C57BLKS/Jnju mice were used as normal control (administered with vehicle). The period of administration was 14 days, and the animals were treated and dissected on Day 15. Whole blood was collected, serum was centrifuged and serum TC and TG were measured by biochemical analyzer.

db/db male mice [3] = test: Blood lipids (serum TC and TG), chiglitazar sodium with empagliflozin (Example 3); format: in vivo; conditions: oral once a day for 14 days, serum on Day 15, 10 mg/kg chiglitazar sodium, 3 mg/kg empagliflozin or both, FIG. 3
Method: Experimental design: the effects on total cholesterol (TC) and triglyceride (TG) in mouse serum of single and combined medication were investigated, by oral administration of chiglitazar sodium, empagliflozin, or a combination thereof to diabetic mice.
Experimental procedure: 6-Week-old db/db male mice were orally administered once a day with 100 µL of vehicle (0.1% sodium carboxymethylcellulose), 10 mg/kg chiglitazar sodium, 3 mg/kg empagliflozin, or a combination of chiglitazar sodium and empagliflozin at the same doses simultaneously, respectively, according to body weight. Wild-type C57BLKS/Jnju mice were used as normal control (administered with vehicle). The period of administration was 14 days, and the animals were treated and dissected on Day 15. Whole blood was collected, serum was centrifuged and serum TC and TG were measured by biochemical analyzer.

db/db male mice [4] = test: Body weight and fasting blood glucose, chiglitazar sodium with empagliflozin (Example 1); format: in vivo; conditions: oral once a day for 14 days, 10 mg/kg chiglitazar sodium, 3 mg/kg empagliflozin or both, FIG. 1; for fasting blood glucose: 4-6 hours of fasting
Method: Experimental design: the effects on body weight and blood glucose of single and combined medication were investigated, by oral administration of chiglitazar sodium, empagliflozin, or a combination thereof to mice.
Experimental procedure: 6-Week-old db/db male mice were orally administered once a day with 100 µL of vehicle (0.1% sodium carboxymethylcellulose), 10 mg/kg chiglitazar sodium, 3 mg/kg empagliflozin, or a combination of chiglitazar sodium and empagliflozin at the same doses simultaneously, respectively, according to body weight. Wild-type C57BLKS/Jnju mice were used as normal control (administered with the vehicle). The period of administration was 14 days, and the animals were treated and dissected on Day 15. Starting from the administration, the mice were subjected to weighing and measurement of fasting blood glucose (4-6 hours of fasting) every 3 days.

Row | SMILES | fasting blood glucose (db/db male mice [1]; 4-6 hours of fasting) | body weight (db/db male mice [1]) | efficacy on blood glucose and lipids in diabetic patients (diabetic patients) | weight gain effect in diabetic patients (diabetic patients) | serum total cholesterol (TC) (db/db male mice [2]) | serum triglyceride (TG) (db/db male mice [2]) | serum total cholesterol (TC) (db/db male mice [3]) | serum triglyceride (TG) (db/db male mice [3]) | fasting blood glucose (db/db male mice [4]) | body weight (db/db male mice [4])
1 | O=C(c1ccc(F)cc1)c1ccccc1NC(Cc1ccc(OCCn2c3ccccc3c3ccccc32)cc1)C(=O)O (stereo not shown) [chiglitazar sodium] | could reduce blood glucose to a certain extent | weight gain | has efficacy in reducing blood glucose and improving lipids in diabetic patients | having certain weight gain effect | could reduce the serum total cholesterol and triglyceride levels to a certain extent | could reduce the serum total cholesterol and triglyceride levels to a certain extent | could reduce the serum total cholesterol and triglyceride levels to a certain extent | could reduce the serum total cholesterol and triglyceride levels to a certain extent | could reduce blood glucose to a certain extent | weight gain
2 | OC[C@H]1O[C@@H](c2ccc(Cl)c(Cc3ccc(O[C@H]4CCOC4)cc3)c2)[C@H](O)[C@@H](O)[C@@H]1O [empagliflozin, reference compound] | – | – | – | – | – | – | could reduce the serum total cholesterol and triglyceride levels to a certain extent | could reduce the serum total cholesterol and triglyceride levels to a certain extent | could reduce blood glucose to a certain extent | –
